Assay results: patent US20020006954A1, “Desmethyl tocopherols for preventing or slowing degenerative neurological diseases” (Oklahoma Medical Research Foundation, priority 2000, published 2002)
Read-outs that look alike come from different tables or passages of the source.

Assays:
[1] = test system: α-ketoglutarate dehydrogenase (αKGDH); assay: Protection of αKGDH activity in rat brain mitochondria exposed to SIN-1; format: biochemical
Protocol: FIG. 5 is a graph showing rat brain mitochondria were exposed to 0.4 mM SIN-1 for 1 H after addition of tocopherol. (.) α-toc; (▪) γ-toc. The scale bars labeled [α]norm and [γ]norm indicate the normal endogenous quantities of α-toc and γ-toc, respectively, in human brain.
Mitochondria were isolated from adult rat brain then sonicated briefly in the presence of either αT or γT, or an ethanol vehicle. Mitochondria were then exposed to SIN-1, which generates NO and superoxide simultaneously at a known rate (7). Combination of NO and superoxide yields ONOO^− in situ (discussed above). Enzyme activity is destroyed by peroxynitrite and superoxide but not by NO (19).

[2] = test system: Primary cortical rat neurons; assay: Neurotoxicity assay, cortical neurons exposed to SNP, LDH release; format: cell-based; settings: SNP 10 μM, 24 hours
Protocol: Cerebrocortical neurons were exposed to the indicated concentration of SNP for 24 hours. Viability was assessed by release of lactate dehydrogenase (LDH) by nonviable cells.
γ-Tocopherol was further assessed for protective ability in a neurotoxicity assay where nitrative stress was imposed. […] Media was removed and cells were then washed and medium was replaced with fresh, tocopherol-free medium.

occlusive thrombus = settings: rats, cited from earlier work; for delay of time to occlusive thrombus: 29% FeCl3 patch on abdominal aorta
Alzheimer's Disease = settings: one clinical study; cited from earlier work
[3] = cited from earlier work; for effect of αT supplementation on systemic γT: oral supplementation
[4] = cited from earlier work; for increase of own plasma tocopherol level above baseline: rats, 100 mg/kg/day for 10 days
C3H/10T½ fibroblasts = settings: methylcholanthrene-treated C3H/10T½ fibroblasts; cited from earlier work
[5] = liposomes exposed to ONOO−; cited from earlier work
systemic lipid oxidation = settings: rats fed tocopherol two weeks after iron-dextran; cited from earlier work
platelet aggregation = settings: rats, 100 mg/kg/day for 10 days; cited from earlier work
endothelial cells = settings: cited from earlier work
superoxide dismutase = settings: rats; cited from earlier work
[6] = rat brain mitochondria, 400 μM SIN-1, 1 h

Compound: Nc1c[n+](N2CCOCC2)no1 [SIN-1, reference compound]
- decrease of αKGDH activity ([1]; 400 μM SIN-1, one hour, rat brain mitochondria): approximately 50%

Compound: Cc1c(C)c2c(c(C)c1O)CC[C@@](C)(CCC[C@H](C)CCC[C@H](C)CCCC(C)C)O2 [αT, alpha tocopherol, reference compound]
- concentration offering as much protection as 50-100 nM of γT ([1]; 400 μM SIN-1): 1 to 10 µM
- tocopherol concentration of maximal protection of αKGDH [1, 6]: about 1 μM
- protection of neurons from SNP toxicity (LDH release) ([2]; 10 μM tocopherol): ineffective
- delay of time to occlusive thrombus (occlusive thrombus; 100 mg/kg/day for 10 days): 25%
- effect on progression of Alzheimer's Disease (Alzheimer's Disease): decreases the progression of Alzheimer's Disease (AD) marginally
- absorption by the gut ([3]; in vivo): absorbed equally well
- effect of αT supplementation on systemic γT [3]: decreases systemic γT concentration
- effect of αT supplementation on systemic γT ([3]; listed as α-tocopherol): depletes the human body of γ-tocopherol
- increase of own plasma tocopherol level above baseline [4]: 2 fold

Compound: Cc1c(O)cc2c(c1C)O[C@](C)(CCC[C@H](C)CCC[C@H](C)CCCC(C)C)CC2 [γT, gamma tocopherol]
- inhibition of neoplastic transformation relative to αT (C3H/10T½ fibroblasts): 4 fold
- concentration offering as much protection as 1-10 μM of αT ([1]; 400 μM SIN-1): 50 to 100 nM
- protection of αKGDH in side-by-side comparison ([1]; at all concentrations tested): more protective than αT
- protection of αKGDH relative to the corresponding concentration of αT ([1]; concentrations near 100 nM, 400 μM SIN-1): approximately 5 times
- maximal protection of αKGDH relative to maximal protection by αT [1, 6]: approximately 2.5 times
- tocopherol concentration of maximal protection of αKGDH [1, 6]: about 1 μM
- inhibition of lipid hydroperoxide formation relative to αT [5]: twice as effective
- protection of neurons from SNP toxicity (LDH release) ([2]; 200 nM tocopherol): significantly protected
- effectiveness at inhibiting systemic lipid oxidation relative to αT (systemic lipid oxidation): approximately 35%
- inhibition of platelet aggregation kinetics relative to αT supplementation (platelet aggregation): 2 fold
- incorporation into endothelial cells (endothelial cells): more rapidly than is αT
- superoxide dismutase activity in aortas compared to the αT treated group (superoxide dismutase): increased significantly
- delay of time to occlusive thrombus (occlusive thrombus; 100 mg/kg/day for 10 days): 65%
- inhibition of iron-induced lipid peroxidation and occlusive thrombus (occlusive thrombus; 100 mg/kg/day for 10 days): significantly more effective than αT supplementation
- potency relative to αT at inhibition of thrombogenic correlates, referred to plasma tocopherol concentrations (occlusive thrombus): 20-30 times
- absorption by the gut ([3]; in vivo): absorbed equally well
- packaging into lipoproteins ([3]; in vivo): less effectively than αT
- increase of own plasma tocopherol level above baseline [4]: 6 fold
- plasma γT concentration as percent of the γT concentration (so in the source) ([4]; γT supplemented rats): ≤ 10%
